pIC50: −log10 of the molar value.

By pIC50 is commonly meant the negative decadic logarithm of the IC50, by convention in mol/L.

Holding throughout (assay type): cell-based
Assay [1] deals with T1, Human IDO-1 (Homo sapiens, UniProt P14902). Description: IDO Kynurenine Assay with Human IDO1/HEK293 cells (Basal L-Kynurenine readout). To be noted: HEK Human IDO-1; for inhibition at 10 µM: HEK293, Primary SP, 10 μM compound, read-out: Basal_L-Kynurenine (IDO1 % inhib @ 10 μM); for pIC50: Primary CRC, read-out: Basal_L-Kynurenine IDO1 Rel IC50. On the procedure:
(§1) Compounds described in the Examples above were tested for inhibition of IDO activity with IDO Kynurenine Assay with Human ID01/HEK293 Cells.
(§2) Human ID01/HEK293 cells were seeded at 10,000 cells per 50 μL per well with RP Ml/phenol red free media containing 10% FBS in a 384-well black wall clear bottom tissue culture plate (Matrix Technologies LLC). 125 nL of certain concentration of compound was then added to each well using ECHO liquid handling systems. The cells were incubated for 20 hours in 37° C. incubator with 5% CO2.
The compound treatments were stopped by adding trichloroacetic acid (Sigma-Aldrich) to a final concentration at 0.2%. The cell plate was further incubated at 50° C. for 30 minute. The equal volume supernatant (20 μL) and 0.2% (w/v) Ehrlich reagent (4-dimethylaminobenzaldehyde, Sigma-Aldrich) in glacial acetic acid were mixed in a new clear bottom 384-well plate. This plate was then incubated at room temperature for 30 minute. The absorbance at 490 nm was measured on Envision plate reader.

The next assay deals with Human ID01/HEK293 cells. The assay is described as follows: HEK Human IDO-1 cells, Basal Viability. Particulars: Primary CRC, HEK Human IDO-1 cell viability, read-out: Basal_Viability Rel IC50. As to the method:
as §2

The target of assay [2] is T1, Human IDO-1. Description: HEK Human IDO-1 cells, Basal N-formyl-kynurenine readout. Particulars: Primary CRC, read-out: Basal_N-formyl-kyn IDO1 Rel IC50. On the procedure: as §1, §2

T1 sequence (P14902 whole entry): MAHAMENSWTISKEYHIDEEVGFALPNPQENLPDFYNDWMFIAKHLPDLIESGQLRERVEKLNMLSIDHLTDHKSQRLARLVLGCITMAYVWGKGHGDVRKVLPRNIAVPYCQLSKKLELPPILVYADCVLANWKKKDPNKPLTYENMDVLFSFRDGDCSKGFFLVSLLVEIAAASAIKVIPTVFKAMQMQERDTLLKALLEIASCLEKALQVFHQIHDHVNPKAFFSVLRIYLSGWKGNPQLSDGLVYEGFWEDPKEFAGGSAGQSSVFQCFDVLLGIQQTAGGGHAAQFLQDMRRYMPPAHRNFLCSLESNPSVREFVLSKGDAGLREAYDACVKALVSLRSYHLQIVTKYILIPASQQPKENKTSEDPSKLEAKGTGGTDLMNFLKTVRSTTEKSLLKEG

With `O=C(Nc1cccc(CN2CC=C(c3cccc(N4CCOCC4)n3)CC2)c1)NC1CCCCC1` [Example 2, 1-Cyclohexyl-3-[3-(6-morpholin-4-yl-3′,6′-dihydro-2′H-[2,4′]bipyridinyl-1′-ylmethyl)-phenyl]-urea], on Human IDO-1 [1], the inhibition at 10 µM was > 90%. Moreover, the negative logarithm of the IC50 (pIC50) is > 5.70 at Human IDO-1 [1], < 4.30 in the assay on Human ID01/HEK293 cells and > 5.70 on Human IDO-1 [2].

In the case of `CN1CCN(c2cccc(C3=CCN(Cc4cccc(NC(=O)NC5CCCCC5)c4)CC3)n2)CC1` [Example 8, 1-Cyclohexyl-3-{3-[6-(4-methyl-piperazin-1-yl)-3′,6′-dihydro-2′H-[2,4′]bipyridinyl-1′-ylmethyl]-phenyl}-urea], the inhibition at 10 µM at Human IDO-1 [1] is < 90%. The negative logarithm of the IC50 (pIC50) was < 5.70 on Human IDO-1 [1], < 4.30 in the assay on Human ID01/HEK293 cells and < 5.70 on Human IDO-1 [2].

For the compound `CCNC(=O)Nc1cccc(CN2CC=C(c3cccc(N4CCOCC4)n3)CC2)c1` [Example 1, 1-Ethyl-3-[3-(6-morpholin-4-yl-3′,6′-dihydro-2′H-[2,4′]bipyridinyl-1′-ylmethyl)phenyl]urea], at Human IDO-1 [1], the inhibition at 10 µM was > 90%. The negative-log IC50 (pIC50) on Human IDO-1 [1] was > 5.70; in the assay on Human ID01/HEK293 cells, < 4.30; on Human IDO-1 [2] it was > 5.70.

Turning to `CCNC(=O)Nc1cccc(CN2CC=C(c3cccc(N4CCCCC4)n3)CC2)c1` [Example 4, 1-Ethyl-3-[3-(6-piperidine-1-yl-3′,6′-dihydro-2′H-[2,4′]bipyridinyl-1′-ylmethyl)-phenyl]-urea], the inhibition at 10 µM at Human IDO-1 [1] was > 90%. The pIC50 on Human IDO-1 [1] was > 5.70; in the assay with Human ID01/HEK293 cells, < 4.30; at Human IDO-1 [2] it was > 5.70.

Take `O=C(Nc1cccc(CN2CC=C(c3cccc(N4CCCCC4)n3)CC2)c1)NC1CC1` [Example 6, 1-Cyclopropyl-3-[3-(6-piperidin-1-yl-3′,6′-dihydro-2′H-[2,4′]bipyridinyl-1′-ylmethyl)-phenyl]-urea]: the inhibition at 10 µM at Human IDO-1 [1] was > 90%. Further, the negative logarithm of the IC50 (pIC50) on Human IDO-1 [1] was > 5.70; with Human ID01/HEK293 cells it was < 4.30; at Human IDO-1 [2] it was > 5.70.

`CN1CCN(c2cccc(C3=CCN(Cc4cccc(NC(=O)NC5CC5)c4)CC3)n2)CC1` [Example 9, 1-Cyclopropyl-3-{3-[6-(4-methyl-piperazin-1-yl)-3′,6′-dihydro-2′H-[2,4′]bipyridinyl-1′-ylmethyl]-phenyl}-urea]: on Human IDO-1 [1], the inhibition at 10 µM was < 90%. Further, the pIC50 at Human IDO-1 [1] is < 5.70; with Human ID01/HEK293 cells, < 4.30; at Human IDO-1 [2], < 5.70.

Take `CCNC(=O)Nc1cccc(CN2CC=C(c3cccc(N4CCN(C)CC4)n3)CC2)c1` [Example 7, 1-Ethyl-3-{3-[6-(4-methyl-piperazin-1-yl)-3′,6′-dihydro-2′H-[2,4′]bipyridinyl-1′-ylmethyl]-phenyl}-urea]: at Human IDO-1 [1], the inhibition at 10 µM is < 90%. Moreover, the negative logarithm of the IC50 (pIC50) was < 5.70 on Human IDO-1 [1], < 4.30 in the assay on Human ID01/HEK293 cells and < 5.70 on Human IDO-1 [2].

Consider `O=C(Nc1cccc(CN2CC=C(c3cccc(N4CCCCC4)n3)CC2)c1)NC1CCCCC1` [Example 5, 1-Cyclohexyl-3-[3-(6-piperidine-1-yl-3′,6′-dihydro-2′H-[2,4′]bipyridinyl-1′-ylmethyl)-phenyl]-urea], for which, at Human IDO-1 [1], the inhibition at 10 µM is > 90%. In addition, the negative logarithm of the IC50 (pIC50) on Human IDO-1 [1] is > 5.70; in the assay on Human ID01/HEK293 cells it was < 4.30; at Human IDO-1 [2] it was > 5.70.

Source of the values: patent US10858351B2, “Substituted tetrahydropyridine derivatives as IDO-1 inhibitors and uses thereof” (Alberta Research Chemicals Inc., priority 2017, dated 2020).
